Laboratory results as given in patent US20250199015A1, “CYCLIN-DEPENDENT KINASE 2 INHIBITORS FOR MEDICAL TREATMENT” (INCYCLIX BIO, LLC, priority 2022, published 2025).

Legend:
[1] = system: Hs68 normal foreskin fibroblast cells; assay: Cell cycle by EdU flow cytometry, normal fibroblasts; type: cell-based, human; conditions: 300 nM, 24 hours, alone or in combination with cisplatin
Procedure: The Hs68 normal foreskin fibroblast cell line was grown in DMEM-high glucose/1× Glutamax/10% fetal bovine serum and was plated at 30,000 cells/well in Corning 6 well tissue culture treated plates. Cells were incubated at 37° C. for 24 hours prior to addition of the first treatment. […] Cells were treated to 24 hours post-initial treatment, with 10 μM EdU added at hour 23. Cells were collected and fixed in 1% paraformaldehyde. Cells were incubated with pacific blue azide dye as described by Thermo Scientific. Cells were then incubated with antibody against γ-H2AX at a ratio of 1:50 before incubation with FarRed dye and RNase. Cells were analyzed on a BD Celesta and data compiled using FloJo and GraphPad. Cell cycle profiles were evaluated following treatment via Flow Cytometry using FlowJo (v10.0) software.

[2] = biological target: Human recombinant COX1 (PTGS1) (Homo sapiens, UniProt P23219); assay: COX1 enzyme inhibition (fluorimetry); type: biochemical
Human recombinant COX1 (PTGS1), sequence (P23219 24-599): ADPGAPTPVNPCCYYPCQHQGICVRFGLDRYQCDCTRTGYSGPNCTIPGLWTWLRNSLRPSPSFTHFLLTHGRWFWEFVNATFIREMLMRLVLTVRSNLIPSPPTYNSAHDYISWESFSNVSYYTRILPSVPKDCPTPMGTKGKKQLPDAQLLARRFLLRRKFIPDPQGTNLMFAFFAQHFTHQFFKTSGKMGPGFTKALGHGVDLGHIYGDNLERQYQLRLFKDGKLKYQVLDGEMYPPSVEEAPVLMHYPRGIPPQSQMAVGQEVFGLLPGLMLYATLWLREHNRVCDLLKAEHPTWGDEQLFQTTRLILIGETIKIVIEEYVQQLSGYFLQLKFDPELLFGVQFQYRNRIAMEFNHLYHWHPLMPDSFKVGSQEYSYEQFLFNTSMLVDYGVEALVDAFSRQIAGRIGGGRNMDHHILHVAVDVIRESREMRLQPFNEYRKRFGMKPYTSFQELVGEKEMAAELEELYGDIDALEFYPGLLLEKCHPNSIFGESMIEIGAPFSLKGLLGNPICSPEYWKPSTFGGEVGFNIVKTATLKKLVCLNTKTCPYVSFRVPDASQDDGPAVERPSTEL

[3] = system: CYP3A4 transcription; assay: CYP induction (transcription); type: in vitro ADME; conditions: up to 3 μM, 24 hours
[4] = system: CYP1A2 transcription; assay: CYP induction (transcription); type: in vitro ADME; conditions: up to 3 μM, 24 hours
[5] = biological target: T1, CYP3A4 (midazolam as substrate) (Homo sapiens, UniProt P08684); assay: CYP inhibition in human liver microsomes; type: in vitro ADME
T1 construct: human liver microsomes were incubated in the appropriate isoform-specific probe substrate; from tissue; host or cells: human liver microsomes
T1 sequence (P08684 whole entry, canonical isoform): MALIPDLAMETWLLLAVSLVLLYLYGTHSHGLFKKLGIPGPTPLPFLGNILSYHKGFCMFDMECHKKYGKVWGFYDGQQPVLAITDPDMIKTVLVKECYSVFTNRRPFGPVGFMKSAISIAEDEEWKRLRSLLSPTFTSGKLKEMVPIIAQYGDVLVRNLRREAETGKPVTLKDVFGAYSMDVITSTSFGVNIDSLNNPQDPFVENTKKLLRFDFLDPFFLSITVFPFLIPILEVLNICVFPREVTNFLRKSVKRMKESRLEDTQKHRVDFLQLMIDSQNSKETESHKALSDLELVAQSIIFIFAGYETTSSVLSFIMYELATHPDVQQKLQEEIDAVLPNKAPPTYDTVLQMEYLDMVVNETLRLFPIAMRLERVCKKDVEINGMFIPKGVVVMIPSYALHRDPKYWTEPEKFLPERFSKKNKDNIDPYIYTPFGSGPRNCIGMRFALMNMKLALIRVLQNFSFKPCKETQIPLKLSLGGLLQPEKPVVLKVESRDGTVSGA
Procedure: (§1) The final DMSO content in the reaction mixtures was ≤0.2%. A selective inhibitor of each isoform was also screened as a positive control. Incubations were terminated by the addition of methanol. The quenched samples were incubated at 4° C. for 10 minutes and filtered by centrifugation for 1 minute at 500 rcf. The supernatants were removed, and the probe substrate metabolites were analyzed by LC-MS/MS.
(§2) The LC-MS/MS system consisted of an AB Sciex API5500 mass spectrometer coupled with an Agilent 1290 liquid chromatography system and an Agilent 1290 Infinity HTS chilled autosampler, controlled through Analyst software (AB Sciex). Samples were analyzed using the following solvent system and gradient: Acquity™ C18 Reverse Phase UPLC HSS T3 (1.8 μm) 2.1×50 mm column; 50° C. Column Temp.; 10 μL Injection Vol.; Mobile Phase A: Water+0.1% Formic Acid; Mobile Phase B: Acetonitrile+0.1% Formic Acid; Flow Rate: 0.6 mL/min.

[6] = biological target: T2, CYP2C19 (Homo sapiens, UniProt P33261); assay: CYP inhibition in human liver microsomes; type: in vitro ADME
T2 construct: human liver microsomes were incubated in the appropriate isoform-specific probe substrate; from tissue; host or cells: human liver microsomes
T2 sequence (P33261 whole entry, canonical isoform): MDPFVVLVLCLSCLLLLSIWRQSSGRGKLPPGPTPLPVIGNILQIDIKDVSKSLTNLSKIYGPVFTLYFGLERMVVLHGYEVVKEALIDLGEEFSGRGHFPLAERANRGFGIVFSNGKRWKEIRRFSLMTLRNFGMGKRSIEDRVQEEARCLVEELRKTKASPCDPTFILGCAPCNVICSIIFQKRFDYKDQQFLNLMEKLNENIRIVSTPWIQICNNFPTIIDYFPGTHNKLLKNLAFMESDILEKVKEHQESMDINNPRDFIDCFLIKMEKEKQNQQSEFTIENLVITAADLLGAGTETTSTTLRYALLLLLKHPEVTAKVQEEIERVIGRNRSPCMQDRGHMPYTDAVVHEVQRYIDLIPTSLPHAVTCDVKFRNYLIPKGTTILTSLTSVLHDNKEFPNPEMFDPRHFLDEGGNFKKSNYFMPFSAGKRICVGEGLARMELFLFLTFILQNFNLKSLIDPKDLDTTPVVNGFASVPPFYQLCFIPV
Procedure: as §1, §2

[7] = biological target: T3, CYP3A4 (testosterone as substrate) (Homo sapiens, UniProt P08684); assay: CYP inhibition in human liver microsomes; type: in vitro ADME
T3 construct: human liver microsomes were incubated in the appropriate isoform-specific probe substrate; from tissue; host or cells: human liver microsomes
T3 sequence (P08684 whole entry, canonical isoform): as the sequence (P08684 whole entry, canonical isoform) above
Procedure: as §1, §2

[8] = biological target: T4, CYP2C9 (Homo sapiens, UniProt P11712); assay: CYP inhibition in human liver microsomes; type: in vitro ADME
T4 construct: human liver microsomes were incubated in the appropriate isoform-specific probe substrate; from tissue; host or cells: human liver microsomes
T4 sequence (P11712 whole entry, canonical isoform): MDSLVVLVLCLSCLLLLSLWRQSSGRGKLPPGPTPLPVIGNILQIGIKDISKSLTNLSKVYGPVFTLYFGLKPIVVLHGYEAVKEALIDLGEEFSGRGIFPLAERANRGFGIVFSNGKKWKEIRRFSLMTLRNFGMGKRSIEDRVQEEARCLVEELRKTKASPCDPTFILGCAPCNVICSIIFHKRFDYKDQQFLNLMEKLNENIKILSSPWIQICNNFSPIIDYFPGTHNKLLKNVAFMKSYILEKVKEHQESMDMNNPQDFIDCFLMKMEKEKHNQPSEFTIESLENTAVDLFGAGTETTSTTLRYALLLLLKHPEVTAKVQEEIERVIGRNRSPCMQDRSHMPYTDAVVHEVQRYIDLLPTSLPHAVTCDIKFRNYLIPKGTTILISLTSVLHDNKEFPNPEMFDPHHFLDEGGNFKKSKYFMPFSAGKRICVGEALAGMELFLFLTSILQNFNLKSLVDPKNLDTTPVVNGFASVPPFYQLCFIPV
Procedure: as §1, §2

[9] = biological target: T5, CYP2B6 (Homo sapiens, UniProt P20813); assay: CYP inhibition in human liver microsomes; type: in vitro ADME
T5 construct: human liver microsomes were incubated in the appropriate isoform-specific probe substrate; from tissue; host or cells: human liver microsomes
T5 sequence (P20813 whole entry, canonical isoform): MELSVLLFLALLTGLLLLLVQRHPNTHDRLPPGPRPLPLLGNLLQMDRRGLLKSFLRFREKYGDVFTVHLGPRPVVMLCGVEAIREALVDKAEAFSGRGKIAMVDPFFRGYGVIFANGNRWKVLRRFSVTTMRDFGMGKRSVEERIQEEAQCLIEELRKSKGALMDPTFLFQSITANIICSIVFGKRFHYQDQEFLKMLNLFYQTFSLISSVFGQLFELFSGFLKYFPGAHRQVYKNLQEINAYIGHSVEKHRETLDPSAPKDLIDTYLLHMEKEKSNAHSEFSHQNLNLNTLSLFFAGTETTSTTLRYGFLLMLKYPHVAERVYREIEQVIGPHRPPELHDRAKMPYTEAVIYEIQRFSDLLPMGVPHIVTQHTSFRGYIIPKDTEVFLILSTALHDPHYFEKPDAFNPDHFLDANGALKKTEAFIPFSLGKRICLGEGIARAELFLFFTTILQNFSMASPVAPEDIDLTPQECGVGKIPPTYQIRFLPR
Procedure: as §1, §2

[10] = biological target: T6, CYP1A2 (Homo sapiens, UniProt P05177); assay: CYP inhibition in human liver microsomes; type: in vitro ADME
T6 construct: human liver microsomes were incubated in the appropriate isoform-specific probe substrate; from tissue; host or cells: human liver microsomes
T6 sequence (P05177 whole entry, canonical isoform): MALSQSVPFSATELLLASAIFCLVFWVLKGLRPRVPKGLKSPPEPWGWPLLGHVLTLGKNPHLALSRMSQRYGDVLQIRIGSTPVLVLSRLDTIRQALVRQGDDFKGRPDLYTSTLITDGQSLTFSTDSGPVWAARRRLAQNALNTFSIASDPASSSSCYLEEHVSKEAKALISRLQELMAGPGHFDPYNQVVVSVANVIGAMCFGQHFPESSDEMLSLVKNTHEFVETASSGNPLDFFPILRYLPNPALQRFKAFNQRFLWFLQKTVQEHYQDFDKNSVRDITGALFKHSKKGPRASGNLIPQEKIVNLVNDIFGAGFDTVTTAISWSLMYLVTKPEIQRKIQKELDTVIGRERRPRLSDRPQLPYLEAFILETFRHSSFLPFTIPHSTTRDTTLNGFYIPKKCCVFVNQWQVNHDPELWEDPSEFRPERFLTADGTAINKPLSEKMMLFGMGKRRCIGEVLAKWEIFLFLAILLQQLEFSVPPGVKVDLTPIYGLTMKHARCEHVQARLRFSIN
Procedure: as §1, §2

[11] = biological target: T7, CYP2D6 (Homo sapiens, UniProt P10635); assay: CYP inhibition in human liver microsomes; type: in vitro ADME
T7 construct: human liver microsomes were incubated in the appropriate isoform-specific probe substrate; from tissue; host or cells: human liver microsomes
T7 sequence (P10635 whole entry, canonical isoform): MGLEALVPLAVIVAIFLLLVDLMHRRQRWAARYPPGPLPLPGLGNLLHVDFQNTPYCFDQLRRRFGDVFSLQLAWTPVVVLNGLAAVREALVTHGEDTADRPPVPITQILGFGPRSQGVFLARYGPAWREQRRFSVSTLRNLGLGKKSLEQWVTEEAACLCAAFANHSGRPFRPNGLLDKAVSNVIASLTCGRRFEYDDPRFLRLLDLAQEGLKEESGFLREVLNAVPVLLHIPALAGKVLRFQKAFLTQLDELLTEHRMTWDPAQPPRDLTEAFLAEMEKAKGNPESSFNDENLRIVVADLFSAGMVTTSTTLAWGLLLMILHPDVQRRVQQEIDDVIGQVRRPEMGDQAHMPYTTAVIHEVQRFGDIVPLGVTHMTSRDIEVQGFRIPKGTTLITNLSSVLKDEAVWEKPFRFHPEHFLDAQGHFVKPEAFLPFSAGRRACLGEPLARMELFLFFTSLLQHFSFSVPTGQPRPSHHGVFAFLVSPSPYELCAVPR
Procedure: as §1, §2

[12] = biological target: T8, CYP2C8 (Homo sapiens, UniProt P10632); assay: CYP inhibition in human liver microsomes; type: in vitro ADME
T8 construct: human liver microsomes were incubated in the appropriate isoform-specific probe substrate; from tissue; host or cells: human liver microsomes
T8 sequence (P10632 whole entry, canonical isoform): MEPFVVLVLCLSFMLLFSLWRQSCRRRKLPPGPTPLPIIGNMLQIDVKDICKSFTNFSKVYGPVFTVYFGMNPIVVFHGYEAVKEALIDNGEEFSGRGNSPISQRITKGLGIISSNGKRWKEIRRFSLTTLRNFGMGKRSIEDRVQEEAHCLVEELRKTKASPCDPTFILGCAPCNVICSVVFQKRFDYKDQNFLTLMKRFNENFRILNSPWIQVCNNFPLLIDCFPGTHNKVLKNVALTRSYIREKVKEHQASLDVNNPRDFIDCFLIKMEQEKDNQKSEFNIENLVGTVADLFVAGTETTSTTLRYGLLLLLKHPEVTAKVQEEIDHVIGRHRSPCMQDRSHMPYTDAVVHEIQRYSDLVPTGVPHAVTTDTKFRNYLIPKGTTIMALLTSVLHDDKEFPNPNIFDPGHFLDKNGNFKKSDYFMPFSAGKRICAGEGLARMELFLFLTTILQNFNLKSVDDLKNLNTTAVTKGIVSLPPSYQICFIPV
Procedure: as §1, §2

[13] = system: MKN-1 cell loaded Hollow Fibers; assay: Mouse hollow fiber assay (CellTiter Glo); type: in vivo, mice; conditions: 75, 100, 150 mg/kg twice daily, Day 16
Procedure: The mouse hollow fiber assay was conducted using three tumor cell lines, OVCAR-3 (ovarian), MKN-1 (gastric), and HCC-1569 (breast), 1e7 OVCAR-3, 5e6 MKN-1, and 1e7 HCC-1569 cells were loaded into Hollow Fibers, placed in cell culture dishes containing RPMI-1640 with 20% FCS and 1% penicillin/streptomycin, and were equilibrated in an incubator at 37 C, 5% CO2 overnight. On Day 0, three fibers were implanted in two different compartments: subcutaneous and intraperitoneal of twenty-four female NMRI nude mice ages 4-5 weeks. […] Female NMRI nude mice were implanted both subcutaneously and intraperitoneally with HCC-1569, MKN1, and OVCAR3 tumor cell-loaded Hollow Fibers on Day 0. The number of animals alive on Day 0 (implantation) and on Day 16 (necropsy) in each group is shown in parentheses in the legend.
MKN-1 cell loaded Hollow Fibers were implanted both subcutaneously and intraperitoneally into female NMRI nude mice on Day 0. Hollow Fibers were collected during necropsy on Day 16 and analyzed using a CellTiter Glo® assay.

[14] = system: Palbo-R MCF7 PDRC15-1 cells; assay: Cell cycle by EdU flow cytometry; type: cell-based, human; conditions: with 1 μM palbociclib, 24 hours
Procedure: (§3) The Palbo-sensitive (Palbo-S) MCF7 parental and Palbo-R daughter cells (MCF7 PDRC15-1) human […] carcinoma cell line was grown in MEM/1× Glutamax/1× Insulin/10% fetal bovine serum with the PDR cells grown in the presence of 1 μM palbociclib. Cells were plated at 100,000 cells/well in Corning 6 cm tissue culture treated plates. […] Cells were treated for 24 hours and 10 μM EdU was added 1 hour prior to collection. Cells were collected and fixed in 1% paraformaldehyde. Cells were incubated with Alexa488 azide dye as described by Thermo Scientific. Cells were then incubated with FarRed dye and RNase. Cells were analyzed on a BD Celesta and data compiled using FloJo and GraphPad. […] The resistant Palbo-R MCF7 cells have a much lower percent of cells in S phase in general.

[15] = system: Palbo-S MCF7 parental cells; assay: Cell cycle by EdU flow cytometry; type: cell-based, human; conditions: 10 nM to 10 μM, 24 hours
Procedure: as §3

NS(=O)(=O)c1ccc(Nc2ncc3cc4n(c3n2)C2(CCCCC2)C(=O)NN4)cc1 [Compound I]
cell cycle changes [1]: Few cell cycle changes were observed
IC50 [2]: 0.26 µM
induction of CYP3A4 transcription [3]: no observed induction
induction of CYP1A2 transcription [4]: no observed induction
IC50 ([5]; CYP3A4, substrate Midazolam, human liver microsomes): 24.3 µM
CYP3A4 inhibition (midazolam as substrate) ([5]; up to 25 μM): Marginal to no inhibition
IC50 ([6]; pH 7.4, probe mephenytoin, CYP2C19, substrate Mephenytoin, human liver microsomes): 25 µM
CYP2C19 inhibition ([6]; up to 25 μM): Marginal to no inhibition
IC50 [7]: 9.59 µM
IC50 [8]: 14.9 µM
IC50 ([9]; CYP2B6, substrate Bupropion, human liver microsomes): > 25 µM
CYP2B6 inhibition ([9]; up to 25 μM): Marginal to no inhibition
IC50 ([10]; CYP1A2, substrate Tacrine, human liver microsomes): > 25 µM
CYP1A2 inhibition ([10]; up to 25 μM): Marginal to no inhibition
IC50 ([11]; CYP2D6, substrate Dextromethorphan, human liver microsomes): > 25 µM
CYP2D6 inhibition ([11]; up to 25 μM): Marginal to no inhibition
IC50 ([12]; CYP2C8, substrate Amodiaquine, human liver microsomes): > 25 µM
CYP2C8 inhibition ([12]; up to 25 μM): Marginal to no inhibition
tumor bioluminescence signal (CellTiter Glo) of Hollow Fibers [13]: only observed in mice administered Compound I intraperitoneally at 75 mg/kg twice per day
cell cycle arrest [14]: arrested during the G1 phase at 30, 100, 300 nM
cell cycle sensitivity [15]: not sensitive to Compound I
